System: AR and PSA
Experiment: NAC pretreatment and down-regulation of AR and PSA in LAPC-4 cells
Type: cell-based
Settings: 10 mmol/L NAC 24 h pretreatment

Structure (SMILES): CC(=O)N[C@@H](CS)C(=O)O [NAC, N-acetylcysteine]
- effect of NAC on methylseleninic acid (MSeA)-induced down-regulation of the AR and PSA (then 10 μmol/L MSeA 24 h): does not inhibit
- effect of NAC on selenite-induced down-regulation of the AR and PSA (then selenite 24 h): inhibits
